# Tests used:
# [1] = system: Salmonella typhimurium TA104 strain; type: cell-based
# Procedure: Genotoxicity Test Using Salmonella typhimurium TA104 Strain Carrying a Reporter Gene Under the Control of DNA Repair Enzyme recN (Vitotox Test)
# To prepare agents for stock of tester strain, Amp solution (50 mg/mL) and Tet solution (10 mg/mL) were prepared, and then LB-agar plate (35 mg/mL+Amp (100 μg/mL)+Tet ([…])) was prepared, and LB medium (20 mg/mL+Amp (100 μg/mL)+Tet (20 μg/mL)) was prepared. Then, LB medium for pre-incubation (10 mg/mL), LB medium for test (4 mg/mL) and enhancer reagent (50 mg (CaCl2.H2O)/mL) were prepared.
# Freezing stock of bacterial strain was thawed to be streaked on LB-agar plate, and incubated in an incubator (TITEC, BIO-SHAKER BR-15) at 37° C. overnight. […]
# A solution for positive control was prepared as below. […] When the test compound was completely dissolved, the highest concentration as prepared was determined to be a highest dose, and when a precipitate was found, a homogeneous suspension which was able to be pipetted was determined to be a highest dose.
# After a fluorescent and luminescent photometer (Thermo Labsystem, Fluoroskan Ascent FL), plate and medium for test were set up, Genox and Cytox reaction solutions were prepared as below. Dilution factor as well as requisite amounts for medium for test, pre-incubation strain solution, Enhancer Reagent and S9 mix were calculated so that OD590 was set as about 0.03 for each culture solution. […]
# [2] = system: production of IL-17 in mouse splenocytes stimulated by recombinant mouse interleukin-23; assay: Production of IL-17 induced when mouse splenocytes were stimulated by rm-IL-23 (ELISA); type: cell-based; details: Splenocyte, inhibition of IL-17 production, rm-IL-23 1 nmol/L, 72 hours
# Procedure: Effect on Production of IL-17 Induced when Mouse Splenocytes were Stimulated by Recombinant Mouse Interleukin-23 (rm-IL-23)
# RPMI1640 media (Sigma-Aldrich) were used as a medium, to which 50 units/mL penicillin G potassium/50 μg/mL streptomycin (Gibco) and […] 2-mercaptoethanol (Sigma-Aldrich) were added, and then thereto was added 10% of fetal calf serum (FCS; Cell Culture Technology) which was treated at 56° C. for 30 minutes to be inactivated, and the mixture was used in the Test. The test compound was dissolved in dimethylsulfoxide and then diluted with 10% FCS-containing RPMI1640 medium to a desired concentration to be used. The spleens were aseptically taken out from 6 to 7 week-old male DBA/1J mice (Charles River Japan, Inc.) and a single cell suspension of splenocytes was prepared, which was hemolyzed by hypotonic treatment with a mixed solution of 0.83% aqueous solution of ammonium chloride and Tris-HCl buffer of pH 7.65 (9:1). A cell suspension prepared by using 10% FCS-containing RPMI1640 medium was added to a flat-bottomed 96 well microtestplate (Coaster) at 2×10^5 cells/well. Thereto were added test compounds and rm-IL-23 (R&D systems) were diluted with a medium to 1 to 1,000 nmol/L and 1 nmol/L of the final concentration, respectively, and the mixture was cultured at 37° C., 5% carbon dioxide and 95% air for 72 hours. After completion of the culture, culture supernatant was sampled and production amounts of IL-17 therein were determined by ELISA method. After sampling the supernatant, WST-8 (Seikagaku Corporation) was added at 10 μl/well and cultured at 37° C., 5% carbon dioxide and 95% air for 4 hours. Then, absorbance (O.D.: Optical Density) at 450 nm was measured by a microplate reader and the value was adopted as an index of cell survivability. An inhibition rate was calculated according to the following formula on the basis of an average of production amounts of IL-17 and O.D. values of the well containing a test compound of each concentration. Inhibition (%)=(1−(Average value of well with addition of test compound)/(Average value of well without addition of test compound))×100
# Based on the dose-response curve obtained by plotting the inhibition rate in the longitudinal axis and the concentration in the horizontal axis, the concentration of the compound which inhibits the level to 50% of the value of the control group (IC50) (nmol/L) was determined by linear regression analysis.
SMILES,IC50 [2] [nM],Genotoxicity (Vitotox test) [1]
Nc1cnc(N2CCC(O)CC2)c(C2CC2)c1 [1-(5-amino-3-cyclopropylpyridin-2-yl)piperidin-4-ol],–,negative
"Cc1cc(NC(=O)c2csc(-c3ccc(Cl)cc3)c2)cnc1N1CCC(C(C)(C)O)CC1 [Example 79, 2-(4-chlorophenyl)-N-{6-[4-(1-hydroxy-1-methylethyl)piperidin-1-yl]-5-methylpyridin-3-yl}thiophene-4-carboxamide]",43.6,–
"Cc1cc(NC(=O)c2cc(-c3ccc(Cl)cc3)cs2)cnc1N1CCC(C(C)(C)O)CC1 [Example 80, 4-(4-chlorophenyl)-N-{6-[4-(1-hydroxy-1-methylethyl)piperidin-1-yl]-5-methylpyridin-3-yl}thiophene-2-carboxamide]",185,–

# The next lines start with results.
IC50 [2] [nM],SMILES,Genotoxicity (Vitotox test) [1]
15.6,"Cc1cc(NC(=O)c2ccc(-c3ccc(Cl)cc3)s2)cnc1N1CCC(C(C)(C)O)CC1 [Example 78, 5-(4-chlorophenyl)-N-{6-[4-(1-hydroxy-1-methylethyl)piperidin-1-yl]-5-methylpyridin-3-yl}thiophene-2-carboxamide]",–
66.8,"Cc1cc(NC(=O)c2cnc(-c3ccc(Cl)cc3)s2)cnc1N1CCC(C(C)(C)O)CC1 [Example 81, 2-(4-chlorophenyl)-N-{6-[4-(1-hydroxy-1-methylethyl)piperidin-1-yl]-5-methylpyridin-3-yl}thiazole-5-carboxamide]",–
91.1,"Cc1cc(NC(=O)c2csc(-c3ccc(Cl)cc3)n2)cnc1N1CCC(C(C)(C)O)CC1 [Example 82, 2-(4-chlorophenyl)-N-{6-[4-(1-hydroxy-1-methylethyl)piperidin-1-yl]-5-methylpyridin-3-yl}thiazole-4-carboxamide]",–
67.6,"Cc1cc(NC(=O)c2cnn(-c3ccc(Cl)cc3)n2)cnc1N1CCC(C(C)(C)O)CC1 [Example 85, 2-(4-chlorophenyl)-N-{6-[4-(1-hydroxy-1-methylethyl)piperidin-1-yl]-5-methylpyridin-3-yl}-2H-[1,2,3]triazole-4-carboxamide]",–

# Source: patent US9527859B2, “Amidopyridine derivative and use thereof” (Mitsubishi Tanabe Pharma Corporation, priority 2012, dated 2016)
